The results in this text go back to patent US20090252703A1, “Use of alcohol co-solvents to improve pegylation reaction yields” (priority 2006, published 2009).

The nature of this series: solubility of CGRP peptides in aqueous conjugation buffer. It is filed as physicochemical. The note with it: aqueous conjugation buffers used for coupling vehicle to the peptide. The source says:
Co-solvent mediated conjugation of vehicle to CGRP peptide antagonists.
`CC(=O)N[C@@H](Cc1c[nH]c2ccccc12)C(=O)N[C@H](C(=O)N[C@H](C(=O)N[C@@H](Cc1cnc[nH]1)C(=O)N[C@@H](CCCNC(N)=O)C(=O)N[C@@H](CC(C)C)C(=O)N[C@@H](C)C(=O)NCC(=O)N[C@@H](CC(C)C)C(=O)N[C@@H](CC(C)C)C(=O)N[C@@H](CO)C(=O)N[C@@H](CCCNC(N)=O)C(=O)N[C@@H](CO)C(=O)NCC(=O)NCC(=O)N[C@H](C(=O)N[C@H](C(=O)N[C@@H](CCCCNC(=N)N)C(=O)N[C@@H](CCCCN)C(=O)N[C@@H](CC(N)=O)C(=O)N[C@@H](Cc1ccccc1)C(=O)N[C@H](C(=O)N1CCC[C@H]1C(=O)N[C@H](C(=O)N[C@@H](CC(=O)O)C(=O)N[C@H](C(=O)NCC(=O)N1CCC[C@H]1C(=O)N[C@@H](Cc1ccccc1)C(=O)N[C@@H](C)C(=O)N[C@@H](Cc1ccccc1)C(N)=O)C(C)C)[C@@H](C)O)C(C)C)C(C)C)C(C)C)[C@@H](C)O)C(C)C` [SEQ ID NO:2]: the “solubility in aqueous buffer medium (in words)” value (from here on “solubility”) was “relatively insoluble”.

Turning to `CC(=O)N[C@@H](Cc1c[nH]c2ccccc12)C(=O)N[C@H](C(=O)N[C@H](C(=O)N[C@@H](Cc1cnc[nH]1)C(=O)N[C@@H](CCCNC(N)=O)C(=O)N[C@@H](CC(C)C)C(=O)N[C@@H](C)C(=O)NCC(=O)N[C@@H](CC(C)C)C(=O)N[C@@H](CC(C)C)C(=O)N[C@@H](CO)C(=O)N[C@@H](CCCNC(N)=O)C(=O)N[C@@H](CO)C(=O)NCC(=O)NCC(=O)N[C@H](C(=O)N[C@H](C(=O)N[C@@H](CCCCNC(=N)N)C(=O)N[C@@H](CCCCN)C(=O)N[C@@H](CC(N)=O)C(=O)N[C@@H](Cc1ccccc1)C(=O)N[C@H](C(=O)N1CCC[C@H]1C(=O)N[C@H](C(=O)N[C@@H](CC(=O)O)C(=O)N[C@H](C(=O)NCC(=O)N1C2CCCCC2C[C@H]1C(=O)N[C@@H](Cc1ccccc1)C(=O)N[C@@H](C)C(=O)N[C@@H](Cc1ccccc1)C(N)=O)C(C)C)[C@@H](C)O)C(C)C)C(C)C)C(C)C)[C@@H](C)O)C(C)C` (stereo partly drawn) [SEQ ID NO:3], the “solubility” value is given as “relatively insoluble”.

Regarding `CC(=O)N[C@@H](Cc1c[nH]c2ccccc12)C(=O)N[C@H](C(=O)N[C@H](C(=O)N[C@@H](Cc1cnc[nH]1)C(=O)N[C@@H](CCCN=C(N)N)C(=O)N[C@@H](CC(C)C)C(=O)N[C@@H](C)C(=O)NCC(=O)N[C@@H](CC(C)C)C(=O)N[C@@H](CC(C)C)C(=O)N[C@@H](CO)C(=O)N[C@@H](CCCN=C(N)N)C(=O)N[C@@H](CO)C(=O)NCC(=O)NCC(=O)N[C@H](C(=O)N[C@H](C(=O)N[C@@H](CCCN=C(N)N)C(=O)N[C@@H](CCCCN)C(=O)N[C@@H](CC(N)=O)C(=O)N[C@@H](Cc1ccccc1)C(=O)N[C@H](C(=O)N1CCC[C@H]1C(=O)N[C@H](C(=O)N[C@@H](CC(=O)O)C(=O)N[C@H](C(=O)NCC(=O)N1CCC[C@H]1C(=O)N[C@@H](Cc1ccccc1)C(=O)N[C@@H](C)C(=O)N[C@@H](Cc1ccccc1)C(N)=O)C(C)C)[C@@H](C)O)C(C)C)C(C)C)C(C)C)[C@@H](C)O)C(C)C` [SEQ ID NO:7], the “solubility” value is listed as “relatively soluble”.
